Where two headings read alike, the source gives them in different places.
How the values were obtained:
human Aurora A = molecular target: T1, human Aurora A (Homo sapiens, UniProt O14965); experiment: Aurora A kinase assay (ADP-Glo); assay type: biochemical
T1 construct: purchased Millipore
T1 sequence (O14965 1-403): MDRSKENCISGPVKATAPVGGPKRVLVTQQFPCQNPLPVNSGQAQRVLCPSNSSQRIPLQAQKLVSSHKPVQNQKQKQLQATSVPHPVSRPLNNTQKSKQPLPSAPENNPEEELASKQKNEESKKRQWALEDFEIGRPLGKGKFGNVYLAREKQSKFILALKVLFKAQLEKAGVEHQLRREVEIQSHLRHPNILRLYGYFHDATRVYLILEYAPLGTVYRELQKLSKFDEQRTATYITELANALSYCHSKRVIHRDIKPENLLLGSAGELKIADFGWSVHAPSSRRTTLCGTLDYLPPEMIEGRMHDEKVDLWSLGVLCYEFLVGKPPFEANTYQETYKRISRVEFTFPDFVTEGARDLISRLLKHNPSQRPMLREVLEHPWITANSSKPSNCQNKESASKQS
Procedure: LRRASLG)+inhibitors arrayed in dose response (added as described above). […] Detection, measurement and data analysis were performed as described above.

Aurora B = molecular target: T2, Aurora B (Homo sapiens, UniProt Q96GD4); experiment: Aurora B radiometric kinase assay (Reaction Biology); assay type: biochemical
T2 construct: Reaction Biology (Malvern, Pa.), contract assay
T2 sequence (Q96GD4 whole entry): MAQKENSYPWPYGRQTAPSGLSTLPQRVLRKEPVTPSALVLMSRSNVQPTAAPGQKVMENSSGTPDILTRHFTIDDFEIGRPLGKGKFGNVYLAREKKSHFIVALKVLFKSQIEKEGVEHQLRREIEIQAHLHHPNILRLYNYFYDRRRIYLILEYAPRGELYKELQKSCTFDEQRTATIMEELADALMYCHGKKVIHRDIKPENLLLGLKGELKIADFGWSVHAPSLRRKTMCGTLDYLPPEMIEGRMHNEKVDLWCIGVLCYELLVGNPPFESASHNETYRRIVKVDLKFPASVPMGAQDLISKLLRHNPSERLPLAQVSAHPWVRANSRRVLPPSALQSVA
Procedure: Aurora B and other radiometric kinase assays were performed by Reaction Biology (Malvern, Pa.).

RET = molecular target: T3, RET (Homo sapiens, UniProt P07949); experiment: Radiometric kinase assay, off-target RET; assay type: biochemical; conditions: off-target from DiscoveRx kinome profiling
T3 construct: Reaction Biology (Malvern, Pa.), contract assay
T3 sequence (P07949 29-1114): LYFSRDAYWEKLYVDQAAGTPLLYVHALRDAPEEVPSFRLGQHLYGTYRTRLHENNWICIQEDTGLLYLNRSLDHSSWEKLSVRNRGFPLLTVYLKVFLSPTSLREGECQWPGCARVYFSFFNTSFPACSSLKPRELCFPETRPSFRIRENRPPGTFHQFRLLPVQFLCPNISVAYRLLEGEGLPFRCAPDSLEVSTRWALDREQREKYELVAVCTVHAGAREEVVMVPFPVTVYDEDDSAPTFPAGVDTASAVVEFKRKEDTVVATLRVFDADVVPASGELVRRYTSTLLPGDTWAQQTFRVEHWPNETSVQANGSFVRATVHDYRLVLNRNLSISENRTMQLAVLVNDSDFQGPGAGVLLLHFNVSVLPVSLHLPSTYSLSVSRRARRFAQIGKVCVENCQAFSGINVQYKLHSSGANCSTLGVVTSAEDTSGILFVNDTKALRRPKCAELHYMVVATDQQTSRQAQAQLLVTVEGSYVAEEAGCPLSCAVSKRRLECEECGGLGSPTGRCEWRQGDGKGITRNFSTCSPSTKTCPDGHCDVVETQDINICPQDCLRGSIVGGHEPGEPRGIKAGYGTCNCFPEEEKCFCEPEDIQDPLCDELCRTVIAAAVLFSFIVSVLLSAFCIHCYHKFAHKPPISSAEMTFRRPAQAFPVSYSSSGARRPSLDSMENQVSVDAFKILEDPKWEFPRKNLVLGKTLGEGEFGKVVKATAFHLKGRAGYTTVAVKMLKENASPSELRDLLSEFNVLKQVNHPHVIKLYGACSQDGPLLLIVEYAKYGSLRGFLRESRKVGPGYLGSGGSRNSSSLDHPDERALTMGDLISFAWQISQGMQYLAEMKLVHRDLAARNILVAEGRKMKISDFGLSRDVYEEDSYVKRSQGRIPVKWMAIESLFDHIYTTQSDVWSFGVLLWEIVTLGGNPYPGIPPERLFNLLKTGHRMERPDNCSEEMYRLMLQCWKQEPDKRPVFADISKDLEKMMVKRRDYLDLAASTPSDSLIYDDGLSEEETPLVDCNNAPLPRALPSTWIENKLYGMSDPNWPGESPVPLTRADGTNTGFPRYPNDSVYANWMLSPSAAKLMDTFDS
Procedure: (§1) Aurora B and other radiometric kinase assays were performed by Reaction Biology (Malvern, Pa.). Kinome profiling of centrinone and centrinone-B was performed by DiscoveRx (San Diego, Calif.).

SRPK1 = molecular target: T4, SRPK1 (Homo sapiens, UniProt Q96SB4); experiment: Radiometric kinase assay, off-target SRPK1; assay type: biochemical; conditions: off-target from DiscoveRx kinome profiling
T4 construct: Reaction Biology (Malvern, Pa.), contract assay
T4 sequence (Q96SB4 whole entry): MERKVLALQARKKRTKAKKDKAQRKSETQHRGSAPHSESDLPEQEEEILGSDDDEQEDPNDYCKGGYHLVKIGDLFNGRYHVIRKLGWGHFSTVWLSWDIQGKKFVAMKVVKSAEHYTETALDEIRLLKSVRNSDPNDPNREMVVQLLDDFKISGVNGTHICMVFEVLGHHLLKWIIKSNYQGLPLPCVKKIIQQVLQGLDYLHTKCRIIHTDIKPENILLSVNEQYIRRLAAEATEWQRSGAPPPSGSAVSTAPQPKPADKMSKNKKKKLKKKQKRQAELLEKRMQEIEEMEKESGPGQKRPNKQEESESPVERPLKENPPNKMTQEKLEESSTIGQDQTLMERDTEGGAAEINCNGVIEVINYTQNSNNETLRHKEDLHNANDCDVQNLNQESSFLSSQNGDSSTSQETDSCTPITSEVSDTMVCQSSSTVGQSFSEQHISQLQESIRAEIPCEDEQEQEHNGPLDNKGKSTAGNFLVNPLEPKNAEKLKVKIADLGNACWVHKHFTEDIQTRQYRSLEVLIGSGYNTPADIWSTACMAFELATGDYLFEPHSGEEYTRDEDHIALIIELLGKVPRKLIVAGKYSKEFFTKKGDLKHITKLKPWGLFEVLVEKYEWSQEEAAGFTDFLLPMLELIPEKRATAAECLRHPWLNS
Procedure: as §1

centrosomes in cells = experiment: Cellular centrosome depletion (cell line not stated); assay type: cell-based; conditions: cellular activity, FIG. 1A
Procedure: Centriole depletion assay for compound screening. 1,500 NIH/3T3 cells or 3,500 HCT116 cells were seeded into 96-well SCREENSTAR microplates (Greiner) and treated with inhibitors in dose response, added from DMSO stocks. After 3 days, cells were fixed directly in the wells with 100% methanol (−20° C., 10 minutes). The fixed cells were washed with PBS and stained with primary antibodies against γ-tubulin and, for a subset of compounds, Cep192. Cells were then stained with Alexa-488 donkey anti-mouse and Alexa-647 goat anti-rabbit secondary antibodies. Cells were imaged using either a Model 500 LumaScope (Etaluma) or an EVOS FL (Advanced Microscopy Group/Life Technologies), and centriole depletion was determined by scoring the percentage of cells without visible γ-tubulin/Cep192 foci.

[1] = test system: Xenopus multiciliated cells; experiment: Multiciliation assay in Xenopus embryos; assay type: in vivo
Procedure: Multiciliation assay in Xenopus embryos. Xenopus embryos were obtained by in vitro fertilization using standard protocols (49) approved by the Northwestern University Institutional Animal Care and Use Committee. Fertilized Xenopus embryos were injected with mRNA encoding the centriole marker Centrin4-GFP (333 pg/embryo) and a Dexamethasone-inducible Multicilin (hGR 3′MCI; 160 pg/embryo) (50, 51). […] Embryos were treated for 13 hours at room temperature, fixed in 4% paraformaldehyde and treated with the actin stain phalloidin. Confocal image stacks were collected using a Nikon AIR microscope and centriole numbers were manually quantified in Nikon Elements software. For each condition, centriole numbers were quantified from approximately 100 cells from at least 3 embryos.

HeLa cells = experiment: Analysis of mitosis, HeLa centrin-GFP H2B-RFP; assay type: cell-based, human; conditions: centrosome-less HeLa cells
Procedure: Analysis of mitosis and daughter cell fate. […] Cells were seeded into 96-well cycloolefin plates at 5000 cells/well, 8-10 hours before imaging. Movies were acquired on the CV1000 with a 40×0.95 NA U-PlanApo objective. The imaging chamber was maintained at 37° C. and 5% CO2. Image acquisition and data analysis were performed using CellVoyager software. 20 fields/well were imaged. For HeLa and NIH/3T3 cells, 5×2 μm z-sections in the GFP (25% power, 125 ms, 30% gain) and RFP (25% power, 100 ms, 30% gain) channels were captured in each field, at 5-minute intervals for 24 hours. For RPE1 cells, 5×2 μm z-sections in the GFP (20% power, 100 ms, 30% gain) and RFP (25% power, 100 ms, 30% gain) channels were captured in each field, at 5-minute intervals for 8 hours. To track RPE1 daughter cell fate, imaging was then switched to 3×4 μm z-sections in the RFP channel only, at 10-minute intervals for 48 hours. Mitosis was measured from nuclear envelope breakdown to anaphase onset (or arrest). Results represent combined measurements of 100 mother cells per condition from 2-4 independent experiments.

NIH/3T3 cells = experiment: Proliferation assay, NIH/3T3; assay type: cell-based, mouse
Procedure: Proliferation assays. For each condition, cells were seeded in triplicate into 6-well plates at 50,000 cells/well. Compounds were added at the indicated concentrations. At 24-hour intervals, 3 wells were harvested per condition. Cell counting was performed using a TC10 automated cell counter (Bio-Rad). Results are from 3 independent experiments.

RPE1 Plk4 G95L cells = experiment: Centrosome number and passaging assay, RPE1 Plk4 G95L knock-in; assay type: cell-based, human; conditions: RPE1, both PLK4 alleles G95L
From the text: For generation of RPE1 cells with a Plk4(G95L) knock-in, we targeted the intronic region between exons 4 and 5 of the Plk4 locus with a gRNA sequence ([…], SEQ ID NO: 1) cloned into pX458 (a gift from Feng Zhang; Addgene plasmid #48138; 44). A repair template was cloned to introduce the G95L point mutation, as well as a neomycin resistance cassette within the intronic region (see FIG. 15). RPE1 cells were transfected with the Cas9/gRNA plasmid, then transduced with adeno-associated virus coding for the repair template using previously described methods (45). Cells were selected in 96-well plates for 2 weeks using 0.5 mg/ml Geneticin (Life Technologies). Positive clones homozygous for the G95L knock-in were identified by PCR and sequencing of genomic DNA.
Passaging assays. Cells were seeded into 10 cm tissue culture plates at 150,000 (HeLa, NIH/3T3 and RPE1) or 200,000 cells/plate (primary fibroblasts). Compounds were added at the indicated concentrations. At 4-day intervals, cells were harvested, counted using a TC10 cell counter, and re-seeded into new plates at the densities above. Results are from 2 independent experiments.

COc1c(Nc2cc(C)[nH]n2)nc(Sc2ccc(S(=O)(=O)Cc3cccc([N+](=O)[O-])c3F)cc2F)nc1N1CCOCC1 [Centrinone, 2-((2-fluoro-4-((2-fluoro-3-nitrobenzyl)sulfonyl)phenyl)thio)-5-methoxy-N-(5-methyl-1H-pyrazol-3-yl)-6-morpholinopyrimidin-4-amine]
Ki (human Aurora A): 171 nM | Ki (Aurora B): 437 nM | Ki (RET): 13.9 nM | Ki (SRPK1): > 150 nM | centrosome depletion at (centrosomes in cells): 100 nM | centriole number in multiciliated cells [1]: dramatically reduced centriole numbers | centriole number in multiciliated cells ([1]; listed as centrinone): reduced centriole number | cells undergoing persistent mitotic arrest (HeLa cells): 24% | increase in mitotic duration (HeLa cells): ~1 h | proliferation versus controls (NIH/3T3 cells; NIH/3T3, first two days after addition): identical to controls | cell death per generation explaining reduced proliferation rate (NIH/3T3 cells; centrosome-less NIH/3T3, theoretical curves versus measurements): 15% | centrosome loss and proliferation (RPE1 Plk4 G95L cells): did not lead to centrosome loss or proliferation arrest
